Where two headings read alike, the source gives them in different places.
Legend:
[1] = design: method as in ref 47 = [47]; 47 Mitchell M , Balakrishnan M , Brizgys G , Cai R , Lansdon E , Mulato A , Osier M , Wang J , Yu H , Sakowicz R . 2017 . Novel non-catalytic site integrase inhibitor with improved resistance profile.; conditions: precluded further clinical investigation; cited from earlier work
[2] = Cytotoxicity assay in MT4 cells; assay type: cell-based; conditions: human, MT4 cells (proliferating human T-cell line), CellTiter-Glo
From the text: Growth inhibition was monitored in a proliferating human T-cell line (MT4) with different concentrations of compounds, using the CellTiter-Glo luminescent reagent (Promega), as previously described ([12]).

[3] = target: HIV-1 IN-LEDGF/p75 interaction (Human immunodeficiency virus type 1 group M subtype B, UniProt P12497); experiment: biochemical
[4] = test system: primary HIV-1 isolates with polymorphisms at IN positions 124 and 125; experiment: Multiple-round infection of MT4 cells with primary HIV-1 isolates polymorphic at IN positions 124 and 125; assay type: cell-based; conditions: primary isolate
Summary of the method: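 Antiviral potency read as protection of cell viability (CellTiter-Glo luminescence). Infection at MOI 0.001 lasted 2 h with compound present at a range of concentrations, using MT4 cells at 10^6/mL in exponential growth.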

[5] = test system: HXB2 HIV-1 strain; experiment: Multiple-round infection assay in MT4 cells, HXB2; assay type: cell-based; conditions: Human immunodeficiency virus 1, HXB2; multiple-round infection, MT4 cells; mean ± SD, n > 5; read-out: EC50 HXB2
Summary of the method: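 Antiviral read-out was CellTiter-Glo luminescent viability of exponentially growing MT4 cells (10^6/mL). Cells were exposed to HIV-1 for 2 h at an MOI of 0.001 while compound was present at varying concentrations.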

[6] = target: T1, HIV-1 IN (Human immunodeficiency virus type 1 group M subtype B, UniProt P12497); experiment: HTRF IN multimerization assay; assay type: biochemical; conditions: mean ± SD
T1 construct: made in house
From the text: A key property of INLAIs is the ability to promote HIV-1 IN homo-multimerization ([39][–][42]). […] The maximal signal (plateau) in our IN aggregation assay corresponds to the highest HTRF signal increase under saturating INLAI concentration, relative to baseline level. Thus, MUT916, MUT884, MUT871, and MUT872 increased HIV-1 IN aggregation 3.7 to 4.4-fold, while BDM-2, BI-224436, and S-I-82 did so 5 to 6-fold (Table 1).

[7] = test system: NL4-3 HIV-1 with INLAI-selected IN single point mutations; assay type: cell-based
[8] = test system: NL4-3 HIV-1 strain; experiment: Multiple-round infection assay in MT4 cells, NL4-3; assay type: cell-based; conditions: MT4 cells
[9] = test system: VSV-G-pseudotyped NL4-3Δenv-luc; experiment: microbe, parasite or virus in culture; assay type: cell-based, HIV-1; conditions: Human immunodeficiency virus 1, NL43, MT4, read-out: EC50 in single-round infection
[10] = test system: lab-adapted and clinical HIV-1 isolates; experiment: Infection assays in primary T CD4+ lymphocytes; assay type: cell-based; conditions: Human immunodeficiency virus 1, Lymphocyte
[11] = target: CCD of HIV-1 IN and IBD of LEDGF/p75 (Human immunodeficiency virus type 1 group M subtype B, UniProt P12497); experiment: biochemical
[12] = test system: recombinant NL4-3 viruses with polymorphisms at IN positions 124 and 125; experiment: Multiple-round infection of MT4 cells with recombinant NL4-3 viruses polymorphic at IN positions 124 and 125; assay type: cell-based, HIV-1
Summary of the method: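 EC50 fold change relative to wild-type TT NL4-3 was derived from CellTiter-Glo viability of exponentially growing MT4 cells (10^6/mL). Cells were exposed for 2 h, with compounds, to NL4-3 clones bearing one of 15 IN 124/125 variants at MOI 0.001.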

[13] = test system: HIV-1 strains resistant to INSTIs, NRTIs, NNRTIs or PIs; assay type: cell-based; conditions: PI-resistant virus
Summary of the method: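 Cell viability (CellTiter-Glo luminescence) served as read-out in MT4 cells at 10^6/mL, infected 2 h at MOI 0.001 in presence of graded compound concentrations. Viruses: resistance-mutation recombinants in NL4-3 backbone plus resistant clinical isolates.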

[14] = design: method as in ref 22 = [22]; 22 Meng X , Donazzolo Y , Kim B , Kim K . 2022 . The first-in-human clinical trial of STP0404, a novel potent HIV-1 allosteric integrase inhibitor . Poster PESUB2624th AIDS Conference , Montreal, Cana; conditions: cited from earlier work

Cc1cc2nc(-c3ccc4c(c3)c(C3CCN(C5COC5)CC3)nn4C)sc2c(-c2ccc(Cl)cc2)c1[C@H](OC(C)(C)C)C(=O)O [GS-9822]
toxicity [1]: renal and urinary bladder toxicity

Cc1cc(NS(=O)(=O)CC2CCCCC2)c(C)c(C(OC(C)(C)C)C(=O)O)c1-c1ccc2c(c1)CCCO2 (stereo not drawn) [S-I-82, reference compound]
CC50 [2]: 28 ± 3 µM | IC50 [3]: 820 ± 380 nM | Fold change in EC50 relative to parental NL4-3, CAM2BBY (CRF02) ([4]; IN 124/125 AA): 2 | Fold change in EC50 relative to parental NL4-3, E0836M4 (D) ([4]; IN 124/125 AA): 1 | Fold change in EC50 relative to parental NL4-3, KER2008 (A) ([4]; IN 124/125 AA): 1 | Fold change in EC50 relative to parental NL4-3, NP1525 (CRF01) ([4]; IN 124/125 AA): 2 | Fold change in EC50 relative to parental NL4-3, NP1695 (CRF02) ([4]; IN 124/125 AA): 1 | Fold change in EC50 relative to parental NL4-3, TZA125 (C) ([4]; IN 124/125 AA): 1 | Fold change in EC50 relative to parental NL4-3, KSM4030 (A) ([4]; IN 124/125 GA): 6 | Fold change in EC50 relative to parental NL4-3, vGA (C) ([4]; IN 124/125 GA): 4 | Fold change in EC50 relative to parental NL4-3, 99ET14 (C) ([4]; IN 124/125 NA): 210 | Fold change in EC50 relative to parental NL4-3, NP1538 (B) ([4]; IN 124/125 NA): 1 | Fold change in EC50 relative to parental NL4-3, vNA_1 (B) ([4]; IN 124/125 NA): 23 | Fold change in EC50 relative to parental NL4-3, vNA_2 (CRF02) ([4]; IN 124/125 NA): 23 | Fold change in EC50 relative to parental NL4-3, vNV (B) ([4]; IN 124/125 NV): 34 | Fold change in EC50 relative to parental NL4-3, vSA_1 (B) ([4]; IN 124/125 SA): 12 | Fold change in EC50 relative to parental NL4-3, vSA_2 (CRF02) ([4]; IN 124/125 SA): 4 | Fold change in EC50 relative to parental NL4-3, vTA_1 (B) ([4]; IN 124/125 TA): 3 | Fold change in EC50 relative to parental NL4-3, vTA_2 (CRF02) ([4]; IN 124/125 TA): 3 | EC50 [5]: 4.1 ± 0.7 nM | AC50 ([6]; concentration for 50% maximum activation of multimerization): 47 ± 31 nM | IN multimerization Plateau ([6]; maximum multimerization reached versus baseline): 500 ± 43% | EC50 fold change compared to wild type NL4-3, A128T [7]: 4 | EC50 fold change compared to wild type NL4-3, H171Q [7]: 2 | EC50 fold change compared to wild type NL4-3, N222K [7]: 1 | EC50 fold change compared to wild type NL4-3, T174I [7]: 15 | EC50 fold change compared to wild type NL4-3, Y99H [7]: 2 | EC90 ([8]; Human immunodeficiency virus 1, NL43, multiple-round infection, from dose response curves, read-out: EC90 NL4-3): 21 ± 7.2 nM | EC50 ([8]; Human immunodeficiency virus 1, NL43, multiple-round infection, mean ± SD, n > 5, read-out: EC50 NL4-3): 12 ± 3 nM | Selectivity index CC50/EC50 NL4-3 [8]: 2,333 | EC50 [9]: 9.2 ± 1.1 µM | EC50 ([10]; read-out: EC50 33913N (B)): 4.4 ± 1.9 nM | EC50 ([10]; read-out: EC50 HXB2 (B)): 5.2 ± 3.9 nM | EC50 ([10]; read-out: EC50 KER2008 (A)): 11 ± 2 nM | EC50 ([10]; read-out: EC50 NL4-3 (B)): 9.9 ± 1.1 nM | EC50 ([10]; read-out: EC50 NP1525 (CRF01_AE)): 10 ± 4 nM | EC50 ([10]; read-out: EC50 NP1538 (B)): 8.6 ± 0.5 nM | IC50 [11]: 430 ± 130 nM | Fold change in EC50 relative to parental NL4-3, AA ([12]; recombinant NL4-3, IN 124/125 AA): 1 | Fold change in EC50 relative to parental NL4-3, AM ([12]; recombinant NL4-3, IN 124/125 AM): 1 | Fold change in EC50 relative to parental NL4-3, AT ([12]; recombinant NL4-3, IN 124/125 AT): 1 | Fold change in EC50 relative to parental NL4-3, AV ([12]; recombinant NL4-3, IN 124/125 AV): 2 | Fold change in EC50 relative to parental NL4-3, GA ([12]; recombinant NL4-3, IN 124/125 GA): 3 | Fold change in EC50 relative to parental NL4-3, GT ([12]; recombinant NL4-3, IN 124/125 GT): 3 | Fold change in EC50 relative to parental NL4-3, NA ([12]; recombinant NL4-3, IN 124/125 NA): 10 | Fold change in EC50 relative to parental NL4-3, NT ([12]; recombinant NL4-3, IN 124/125 NT): 5 | Fold change in EC50 relative to parental NL4-3, NV ([12]; recombinant NL4-3, IN 124/125 NV): 5 | Fold change in EC50 relative to parental NL4-3, SA ([12]; recombinant NL4-3, IN 124/125 SA): 4 | Fold change in EC50 relative to parental NL4-3, ST ([12]; recombinant NL4-3, IN 124/125 ST): 2 | Fold change in EC50 relative to parental NL4-3, TA ([12]; recombinant NL4-3, IN 124/125 TA): 2 | Fold change in EC50 relative to parental NL4-3, TM ([12]; recombinant NL4-3, IN 124/125 TM): 1 | Fold change in EC50 relative to parental NL4-3, TV ([12]; recombinant NL4-3, IN 124/125 TV): 1 | Fold change in EC50 relative to NL4-3, ARP-4595 [13]: 1 | Fold change in EC50 relative to NL4-3, ARP-4596 [13]: 0.5 | Fold change in EC50 relative to NL4-3, ARP-11801 [13]: 1 | Fold change in EC50 relative to NL4-3, ARP-11803 [13]: 1 | Fold change in EC50 relative to NL4-3, ARP-11807 [13]: 1 | Fold change in EC50 relative to NL4-3, ARP-11808 [13]: 1

Cc1nc2c(c(C)c(C)n2Cc2cnn(C)c2)c(-c2ccc(Cl)cc2)c1[C@H](OC(C)(C)C)C(=O)O [STP0404, Pirmitegravir]
tolerability in clinical phase I study [14]: Well tolerated

From PMC10353390, “Biological and Structural Analyses of New Potent Allosteric Inhibitors of HIV-1 Integrase” (Antimicrobial Agents and Chemotherapy, 2023)
